Tests used:
[1] = tested on: L-NAME/Angiotensin II/NaCl-treated rats; assay: L-NAME/Angiotensin II/NaCl model of cardiac and renal injury (14 days); assay type: in vivo, Male Wistar rats
Experimental: Animals. Male Wistar rats (n=44), weighing 200 to 225 grams, and obtained from Charles River Laboratories (Wilmington, MA) were used in the study. All animals were housed in a room lighted 12 hours per day at an ambient temperature of 22±1°C. Animals were allowed one week to recover after arrival and had free access to Purina Lab Chow 5001 (Ralston Purina Inc, St. Louis, MO) and tap water until the initiation of the experiment. After initiation of the protocols, animals in all groups were placed in individual metabolic cages, handled and weighed daily. Twenty-four hour fluid intake, food intake and urine output were measured daily. […] On day 14 of L-NAME treatment, animals were decapitated, trunk blood was collected into chilled tubes containing ethylene diamine tetraacetic acid and the heart and kidneys were removed, blotted dry and immediately weighed. […] Drugs. Eplerenone was supplied by G.D. Searle Pharmaceuticals (St. […] Dexamethasone was dissolved in sesame oil and administered as a single subcutaneous dose (12 μg/kg/day) every day. This dose of dexamethasone has been reported to maintain normal weight gain, glomerular filtration rate, and fasting plasma glucose and insulin levels in adrenalectomized rats. Stanton, B., Giebisch G et al. J. Clin. Invest 1985 75:1317-1326. The experiment was concluded on day 14 of L-NAME treatment. […] (Hou J et al. J. Clin. Invest. 1995 96:2469-2477. […] This lower dose induced lesions in stroke-prone spontaneously hypertensive rats. (Rocha R et al. […] Dexamethasone, aldosterone and L-NAME were purchased from Sigma Chemical Co. (St. Louis, MO). […] Surgical Procedure. […] Bilateral adrenalectomy was performed using a dorsolumbar approach, making separate incisions on each side. […] No post operative deaths occurred. Assays and Analyses. Systolic blood pressure was measured in awake animals by tail-cuff plethysmography using a Natsume KN-210 manometer and tachometer (Peninsula Laboratories Inc, Belmont, CA). Rats were warmed at 37°C for 10 minutes and allowed to rest quietly in a Lucite chamber before measurement of blood pressure. Urinary protein concentration was determined in urine collected on the last day of the experiment using the sulfosalicylic acid turbidity method. […] Plasma aldosterone concentration was determined using a standard radioimmunoassay-kit from Diagnostic Products Co. (Los Angeles, CA). Plasma renin activity ("PRA") was determined by radioimmunoassay detection of generated angiotensin I (DiaSorin Inc., Stillwater, MN). Histology. Hearts were stained with collagen specific dye Sirius red for determination of fibrosis as reported elsewhere. (Young M et al. Am. J. Physiol 1995 269:[…]-[…]). Interstitial collagen was determined using an automated image analyzer. The hearts were also stained with hematoxylin and eosin for light microscopic analysis. Two or three slices of different sections of the heart containing both right and left ventricle were analyzed from each animal. […] Glomerular damage, when present, was characterized as the presence of either segmental or global sclerosis with ischemic or thrombotic changes. Renal arterial and arteriolar damage was categorized as the presence of fibrinoid necrosis of the vascular wall. The renal arterial and arteriolar profiles presenting damage were counted and the number of injured vessels per section was divided by the number of glomeruli in the same section in order to normalize for the amount of tissue examined. […] Statistical analysis. Data were tested for normality using the Kolmogorov-Smimov test. Systolic blood pressure was analyzed using repeated measures-analysis of variance for time and treatment group. One-way analysis of variance was used for normally distributed data with one grouping variable. Post-hoc analysis was performed using Newman Keuls multiple-comparison test. Data that were not normally distributed were analyzed with the Kruskal-Wallis test. Subsequently, selected pairwise comparisons were made using the exact Wilcoxon test. […]

[2] = tested on: Stroke Prone Spontaneously Hypertensive Rat (SHR-SP); assay: Blood pressure in stroke prone spontaneously hypertensive rat (SHR-SP), tail cuff plethysmography; assay type: in vivo
Experimental: Methods: SHR-SP were bred in the animal facilities of New York Medical College and maintained on normal rat chow and non-saline drinking water (i.e., tap water). […] Indirect measurements of systolic blood pressure were assessed by tail cuff plethysmography.

[3] = Food effect pharmacokinetic studies, Japan and Ex-Japan; assay type: in vivo, Japanese (Japan) and European (Ex-Japan) subjects
Experimental: The Ex-Japan trials included (i) a single dose tolerability trial, and (ii) a multiple dose tolerability trial, and (iii) a food effect study.
Both single dose and multiple dose tolerability trials were conducted in Japan utilizing healthy male Japanese subjects. […] Six subjects who received the 100 mg dose also participated in the food effect treatment arm of the single dose tolerability trial.
Table A-11C contains the geometric least squares means for the fed and fasting regimens, the ratios of means and the corresponding 95% confidence intervals (CI) for the ratios of the means for the Japan and Ex-Japan food effect trials.
Each panel consisted of six subjects who were given eplerenone and two subjects who were given placebo.

[4] = tested on: stroke-prone spontaneously hypertensive rats; settings: cited from earlier work
[5] = end of experiment, Epl 100 mg/kg/day p.o., ALDO 40 µg/kg/day in adrenalectomized rats

COC(=O)[C@@H]1CC2=CC(=O)CC[C@]2(C)[C@@]23O[C@@H]2C[C@@]2(C)[C@@H](CC[C@@]24CCC(=O)O4)[C@H]13 [Eplerenone, Pregn-4-ene-7,21-dicarboxylic acid, 9,11-epoxy-17-hydroxy-3-oxo-, γ-lactone, methyl ester, (7α, 11α, 17β)-]
cardiac injury (myocardial necrosis), histology ([1]; Figures A-3B, A-4): markedly reduced | HW/BW ([1]; cardiac hypertrophy index, Epl 100 mg/kg/day p.o., ALDO 40 µg/kg/day in adrenalectomized rats): 3.46 ± .05 mg/g | cardiac hypertrophy ([1]; compared to L-NAME/Angiotensin II/NaCl-treated rats): significantly reduced cardiac hypertrophy | HW [1, 5]: 1144 ± 4 mg | SBP [1, 5]: 177 ± 8 mmHg | urinary protein excretion (24 hour), proteinuria ([1]; end of two-week treatment, Figure A-5): prevented the development of proteinuria | extent of hypertension observed at the end of the experiment ([1]; eplerenone 100 mg/kg/day p.o., Figure A-1): not appreciably influenced | reduction in renal arteriopathy damage compared to L-NAME/AngII/NaCl treated rats ([1]; histopathologic scores, P=0.1 (not significant)): 60% | systolic blood pressure ([2]; Week 13 (initiation), 100 mg/kg/day p.o. BID): 201.4 ± 1.6 mmHg | systolic blood pressure ([2]; Week 14, 100 mg/kg/day p.o. BID): 202.8 ± 1.8 mmHg | systolic blood pressure ([2]; Week 15, 100 mg/kg/day p.o. BID): 208.0 ± 4.2 mmHg | systolic blood pressure ([2]; Week 16, 100 mg/kg/day p.o. BID): 203.1 ± 6.2 mmHg | AUC (0-lqc), Mean Ratio ([3]; Ex-Japan Food Effect Study): 1.079 | Cmax, Mean Ratio (fed/fasted) ([3]; Ex-Japan Food Effect Study): 0.814 | AUC (0-inf), Mean Ratio ([3]; Japan Food Effect Study): 1.218 | AUC (0-lqc), Mean Ratio ([3]; Japan Food Effect Study): 1.218 | Cmax, Mean Ratio (fed/fasted) ([3]; Japan Food Effect Study): 1.157 | AUC (0-inf), Mean Ratio ([3]; human, in vivo): 1.079 | proteinuria, renal lesions and hypertension [4]: prevented proteinuria and renal lesions but not severe hypertension

From patent EP1289507B1, “USE OF AN ALDOSTERONE ANTAGONIST FOR THE TREATMENT OR PROPHYLAXIS OF ALDOSTERONE-MEDIATED PATHOGENIC EFFECTS” (priority 2000, dated 2001)
